Experimental data from ChEMBL document CHEMBL1141272, “Eujavanicols A-C, decalin derivatives from Eupenicillium javanicum” (J Nat Prod, 2007).
Active and inactive are the calls of the source. No cut-off for these calls is given here.

System: Aspergillus fumigatus
Assay: Antifungal activity against Aspergillus fumigatus
Format: functional, organism-based

SMILES | Activity
CC[C@@H](C)[C@H]1C=C[C@H]2[C@H](O)[C@@H](O)C[C@@H](C)[C@@H]2[C@@]1(C)C(=O)CCO | inactive
CC[C@@H](C)C1=CC(=O)[C@H]2[C@H](O)[C@H](O)C[C@@H](C)[C@@H]2[C@@]1(C)C(=O)CCO | inactive
CC[C@@H](C)[C@H]1C=C[C@H]2[C@H](O)[C@H](O)C[C@@H](C)[C@@H]2[C@@]1(C)C(=O)CCO | inactive
